Laboratory results reported in patent US20070015725A1, “2-azapurine compounds and their uses” (Roche Diagnostics, GMBH, priority 1999, published 2007).
In the oligonucleotide strings, read from the 5' end, every base follows the letter of its sugar. An asterisk marks phosphorothioate; unmarked linkages are phosphodiester. Other units and linkages are bracketed, terminal groups are in braces. A string of capitals states the bases alone. [z2A] = 2-aza-2'-deoxyadenosine; d = 2'-deoxy (DNA)

What was measured:
oligonucleotide duplexes = experiment: Tm values and thermodynamic parameters of duplex formation (absorbance vs. temperature melting curves); type: binding; conditions: for Tm / ΔG / ΔH / ΔS: 10 mM Na-cacodylate, 100 mM NaCl, 10 mM MgCl2, pH 7; for Tm: 5 μM single strand concentration; for ΔG: duplex formation (ΔG°298); for ΔG / ΔH / ΔS: 5 μM single strand, MeltWin 3.0; for ΔH / ΔS: duplex formation
Protocol: Determination of melting curves and thermodynamics: Absorbance vs. temperature profiles were measured on Cary 1 or 1E spectrophotometers (Varian, Australia) with a Cary thermoelectrical controller. […] 3.0. Circular dichroism (CD) spectra were recorded on a Jasco 600 (Jasco, Japan) spectropolarimeter, a thermostatically controlled bath (Lauda RCS-6) in a 1-cm cuvette.

natural nucleobases = conditions: cited from earlier work

Row | Compound | Tm (oligonucleotide duplexes) [°C] | ΔG (oligonucleotide duplexes) [kcal/mol] | ΔH (oligonucleotide duplexes) [kcal/mol] | ΔS (oligonucleotide duplexes) [cal/K mol] | other results
1 | 5′-d(TAGGTC6ATACT) 3′-d(ATCCAGTTATGA): duplex SEQ ID NO: 3 with SEQ ID NO: 2; 6: z^2Ad; one z^2Ad-dT pair (chain 1 TAGGTCAATACT; chain 1: DNA, [z2A] at 7, backbone not given here; chain 2: unmodified DNA) | 42 | -9.2 | -85 | −245 | –
2 | CC(C)CN(C=Nc1nnnc2c1ncn2[C@H]1C[C@H](O)[C@@H](CO)O1)CC(C)C [Compound 9b, 7-(2-Deoxy-β-D-erythro-pentofuranosyl)-4-{[(di-isobutylamino)methylidene]-amino}-7H-imidazo[4,5-d][1,2,3]-triazine] | – | – | – | – | melting point: 138 to 140 °C
3 | CCCCN(C=Nc1nnnc2c1ncn2[C@H]1C[C@H](O)[C@@H](CO)O1)CCCC [Compound 9c, 7-(2-Deoxy-β-D-erythro-pentofuranosyl)-4-{[(di-n-butylamino)methylidene]-amino}-7H-imidazo[4,5-d][1,2,3]-triazine] | – | – | – | – | melting point: 107 to 109 °C
4 | 5′-d(TAGGTC66TACT) 3′-d(ATCCAGCCATGA): duplex SEQ ID NO: 5 with SEQ ID NO: 7; 6: z^2Ad; two z^2Ad-dC pairs (chain 1 TAGGTCNNTACT; z2Ad modified nucleosides; modified_base (7)..(8) n = 2-Aza 2′-deoxyadenosine) | 20 | -5.5 | -41 | −113 | –
5 | OC[C@H]1O[C@@H](N2CNc3c2nnn2ccnc32)C[C@@H]1O [Compound 7, 3-(2-Deoxy-β-D-erythro-pentofuranosyl)-1H-diimidazo[1,2-c:4′,5′-e][1,2,3]-triazine] | – | – | – | – | melting point: 151 to 152 °C (dec.)
6 | 5′-d(TAGGTC66TACT) 3′-d(ATCCAGTTATGA): duplex SEQ ID NO: 5 with SEQ ID NO: 2; 6: z^2Ad; two z^2Ad-dT pairs (chain 1 dTdAdGdGdTdCd[z2A]d[z2A]dTdAdCdT; chain 2: unmodified DNA) | 37 | -7.7 | -76 | −219 | –
7 | 5′-d(TAGGTCGGTACT) 3′-d(ATCCAGCCATGA): unmodified duplex SEQ ID NO: 9 with SEQ ID NO: 7; two G-C pairs (listed as DNA, chemistry not fully specified; one strand is listed 3' to 5') [reference compound] | 54 | – | – | – | –
8 | O=c1[nH]nnc2c1ncn2[C@H]1C[C@H](O)[C@@H](CO)O1 [Compound 3, 7-(2-deoxy-β-D-erythro-pentofuranosyl)-7H-imidazo[4,5-d][1,2,3]-triazin-4-one] | – | – | – | – | stability of the base pair I^Az/G, less than the base pair A/T (natural nucleobases): 9 °; stability of the base pair I^Az/G, less than the regular base pair C/G (natural nucleobases): 13 °
9 | 5′-d(TAGGTC66TACT) 3′-d(ATCCAGAAATGA): duplex SEQ ID NO: 5 with SEQ ID NO: 6; 6: z^2Ad; two z^2Ad-dA pairs (chain 1 TAGGTCNNTACT; z2Ad modified nucleosides; modified_base (7)..(8) n = 2-Aza 2′-deoxyadenosine) | 25 | -5.7 | -49 | −141 | –
10 | 5′-d(TAGGTCAATACT) 3′-d(ATCCAGGGATGA): unmodified duplex SEQ ID NO: 1 with SEQ ID NO: 8; two dA-dG mismatches (unmodified DNA) [reference compound] | 36 | -7.4 | -47 | −127 | –
11 | Nc1nnnc2c1ncn2[C@H]1C[C@H](O)[C@@H](CO)O1 [Compound 2, 4-Amino-7-(2-deoxy-β-D-erythro-pentofuranosyl)-7H-imidazo[4,5-d][1,2,3]-triazine] | – | – | – | – | base pairing with 2′-deoxyguanosine (dG) (oligonucleotide duplexes): specifically stable base pairs; base pairing with dT, dC and dA (oligonucleotide duplexes): much less stable base pairs
12 | 5′-d(TAGGTC66TACT) 3′-d(ATCCAGGGATGA): duplex SEQ ID NO: 5 with SEQ ID NO: 8; 6: z^2Ad; two z^2Ad-dG pairs (chain 1 TAGGTCNNTACT; z2Ad modified nucleosides; modified_base (7)..(8) n = 2-Aza 2′-deoxyadenosine) | 46 | -10.1 | -74 | −206 | –
13 | 5′-d(TAGGTCAATACT) 3′-d(ATCCAGTTATGA): unmodified standard duplex, SEQ ID NO: 1 with SEQ ID NO: 2 (= SEQ ID NO: 10) (listed as DNA, chemistry not fully specified; one strand is listed 3' to 5') [reference compound] | 46 | -10.4 | -82 | −230 | Tm (oligonucleotide duplexes; listed as 5′-d(TAGGTCAATACT) 5′-d(AGTATTGACCTA)): 47 °C
14 | 5′-d(TAGGTC6ATACT) 3′-d(ATCCAGGTATGA): duplex SEQ ID NO: 3 with SEQ ID NO: 4; 6: z^2Ad; one z^2Ad-dG pair (chain 1 dTdAdGdGdTdCd[z2A]dAdTdAdCdT; chain 2: unmodified DNA) | 46 | -9.9 | -83 | −236 | –
